In ChEMBL document CHEMBL5233214, “Tyrosinase inhibitors as potential antibacterial agents” (Eur J Med Chem, 2020):
Values after ≈ are worked out from the molar mass of the structure shown.

How the values were obtained:
Tyrosinase [1] = target: T1, Tyrosinase (Homo sapiens, UniProt P14679); assay: Inhibition of tyrosinase (unknown origin) using DOPA as substrate incubated for 15 min by spectrophotometer assay
T1 sequence (P14679 whole entry): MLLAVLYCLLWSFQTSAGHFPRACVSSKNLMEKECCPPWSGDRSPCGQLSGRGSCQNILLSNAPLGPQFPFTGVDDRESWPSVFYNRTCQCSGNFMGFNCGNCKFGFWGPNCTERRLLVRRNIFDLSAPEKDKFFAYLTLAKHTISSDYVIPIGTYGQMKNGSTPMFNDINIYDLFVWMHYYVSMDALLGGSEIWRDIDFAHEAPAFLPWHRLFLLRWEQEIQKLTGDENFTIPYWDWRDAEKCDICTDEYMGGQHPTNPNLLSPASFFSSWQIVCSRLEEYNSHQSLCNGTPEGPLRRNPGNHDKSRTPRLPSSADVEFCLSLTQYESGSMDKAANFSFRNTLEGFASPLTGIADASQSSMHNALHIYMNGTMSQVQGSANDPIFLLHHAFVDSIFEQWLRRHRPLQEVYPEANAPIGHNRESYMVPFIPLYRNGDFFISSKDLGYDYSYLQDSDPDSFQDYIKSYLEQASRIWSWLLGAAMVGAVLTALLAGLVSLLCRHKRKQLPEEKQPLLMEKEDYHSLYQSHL

Fusobacterium nucleatum = assay: Antibacterial activity against Fusobacterium nucleatum ATCC 10953 assessed as inhibition of bacterial growth incubated for 48 hrs by microbroth dilution method; assay type: functional
Bacillus cereus = assay: Antibacterial activity against Bacillus cereus ATCC 27348 assessed as zone of inhibition at 10 ug per disk incubated for 12 hrs by paper-disk diffusion assay; assay type: functional; settings: read-out: IZ
Bacillus subtilis [2] = assay: Antibacterial activity against Bacillus subtilis ATCC 9372 assessed as zone of inhibition at 10 ug per disk incubated for 12 hrs by paper-disk diffusion assay; assay type: functional; settings: read-out: IZ
Staphylococcus aureus [3] = assay: Antibacterial activity against Staphylococcus aureus ATCC 13301 assessed as zone of inhibition at 10 ug per disk incubated for 12 hrs by paper-disk diffusion assay; assay type: functional; settings: read-out: IZ
[4] = tested on: Staphylococcus epidermidis; assay: Antibacterial activity against Staphylococcus epidermidis ATCC 35984 assessed as inhibition of bacterial growth incubated for 24 hrs by two-fold serial dilution method; assay type: functional
Tyrosinase [5] = target: T2, Tyrosinase (Agaricus bisporus, UniProt O42713); assay: Inhibition of mushroom tyrosinase using L-DOPA as substrate incubated for 10 mins by spectrophotometer assay
T2 sequence (O42713 whole entry): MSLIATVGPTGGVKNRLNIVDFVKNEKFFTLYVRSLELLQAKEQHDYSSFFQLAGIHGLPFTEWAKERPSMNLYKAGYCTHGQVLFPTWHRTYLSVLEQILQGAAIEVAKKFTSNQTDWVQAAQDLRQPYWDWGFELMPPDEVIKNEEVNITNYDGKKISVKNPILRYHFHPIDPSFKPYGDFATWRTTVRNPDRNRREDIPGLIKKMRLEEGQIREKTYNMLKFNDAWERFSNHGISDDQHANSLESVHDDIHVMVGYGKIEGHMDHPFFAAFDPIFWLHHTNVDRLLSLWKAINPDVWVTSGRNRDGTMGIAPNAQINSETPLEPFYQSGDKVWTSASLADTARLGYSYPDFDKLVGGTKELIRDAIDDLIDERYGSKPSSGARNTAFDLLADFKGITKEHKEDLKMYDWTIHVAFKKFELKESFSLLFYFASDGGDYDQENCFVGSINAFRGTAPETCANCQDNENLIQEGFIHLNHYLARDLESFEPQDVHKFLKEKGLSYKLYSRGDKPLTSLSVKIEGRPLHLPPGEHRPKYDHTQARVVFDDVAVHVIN

Tyrosinase [6] = target: T2, Tyrosinase; assay: Inhibition of mushroom tyrosinase using L-DOPA as substrate incubated for 20 mins by microplate reader assay
[7] = tested on: Staphylococcus epidermidis; assay: Antibacterial activity against Staphylococcus epidermidis ATCC 14990 assessed as inhibition of bacterial growth incubated for 18 to 24 hrs by serial dilution method; assay type: functional; settings: time 18-24 hrs
Bacillus subtilis [8] = assay: Antibacterial activity against Bacillus subtilis ATCC 66333 assessed as inhibition of bacterial growth incubated for 18 to 24 hrs by serial dilution method; assay type: functional; settings: time 18-24 hrs
Salmonella typhimurium = assay: Antibacterial activity against Salmonella enterica subsp. enterica serovar Typhimurium ATCC 14028 assessed as inhibition of bacterial growth incubated for 18 to 24 hrs by serial dilution method; assay type: functional; settings: time 18-24 hrs
Enterobacter cloacae = assay: Antibacterial activity against Enterobacter cloacae ATCC 13047 assessed as inhibition of bacterial growth incubated for 18 to 24 hrs by serial dilution method; assay type: functional; settings: time 18-24 hrs
Proteus vulgaris = assay: Antibacterial activity against Proteus vulgaris ATCC 13315 assessed as inhibition of bacterial growth incubated for 18 to 24 hrs by serial dilution method; assay type: functional; settings: time 18-24 hrs
Klebsiella pneumoniae = assay: Antibacterial activity against Klebsiella pneumoniae ATCC 13883 assessed as inhibition of bacterial growth incubated for 18 to 24 hrs by serial dilution method; assay type: functional; settings: time 18-24 hrs
Bacillus subtilis [9] = assay: Antibacterial activity against Bacillus subtilis assessed as zone of inhibition at 300 ug/ml; assay type: functional; settings: read-out: IZ
Enterococcus faecalis = assay: Antibacterial activity against Enterococcus faecalis assessed as zone of inhibition; assay type: functional, organism-based
Tyrosinase [10] = target: T2, Tyrosinase; assay: Inhibition of mushroom tyrosinase using L-DOPA as substrate pre-incubated for 10 mins followed by substrate addition and measured after 20 mins by microplate reader assay
Staphylococcus aureus [11] = assay: Antibacterial activity against Methicillin-resistant Staphylococcus aureus assessed as inhibition of bacterial growth by broth microdilution method
Staphylococcus aureus [12] = assay: microbe, parasite or virus in culture; settings: ATTC 25923
Description: Antibacterial activity against Staphylococcus aureus ATTC 25923 assessed as inhibition of bacterial growth by broth microdilution method

[13] = tested on: Staphylococcus epidermidis; assay: microbe, parasite or virus in culture; settings: TISTR 517
Description: Antibacterial activity against Staphylococcus epidermidis TISTR 517 assessed as inhibition of bacterial growth by broth microdilution method

Staphylococcus aureus [14] = assay: Antibacterial activity against Staphylococcus aureus assessed as zone of inhibition; assay type: functional
Staphylococcus aureus [15] = assay: Antibacterial activity against Methicillin-resistant Staphylococcus aureus assessed as inhibition of bacterial growth by agar dilution method; assay type: functional

Compound: OCCc1ccccc1 [PHENYLETHYL ALCOHOL]
- IC50 (Tyrosinase [1]): 2580 µM
- MIC (Fusobacterium nucleatum): 8 µg/mL (≈ 65.5 µM)

Compound: O=c1c(O[C@@H]2O[C@H](CO)[C@H](O)[C@H](O)[C@H]2O)c(-c2ccc(O)c(O)c2)oc2cc(O)cc(O)c12 [HYPEROSIDE]
- IC50 (Tyrosinase [1]): 1.64 µM

Compound: C=C(C)C(CC=C(C)C)Cc1c(O)cc(O)c2c1O[C@H](c1ccc(O)cc1O)CC2=O (some centres not stated)
- zone of inhibition at 10 µg/disc (Bacillus cereus): 14 mm
- zone of inhibition at 10 µg/disc (Bacillus subtilis [2]): 14 mm
- zone of inhibition at 10 µg/disc (Staphylococcus aureus [3]): 14 mm
- MIC [4]: 3.12 µg/mL (≈ 7.36 µM)
- IC50 (Tyrosinase [5]): 4.71 µM

Compound: CC(C)=CCC[C@@](C)(O)[C@@H]1CC=C(C)CC1
- IC50 (Tyrosinase [1]): 2860 µM
- MIC (Fusobacterium nucleatum): 8 µg/mL (≈ 36 µM)

Compound: Nc1ccccc1C1=NNC(c2ccccn2)C1 (configuration not stated)
- IC50 (Tyrosinase [6]): 420 µM
- MIC [7]: 18.8 µg/mL (≈ 78.7 µM)
- MIC (Bacillus subtilis [8]): 18.8 µg/mL (≈ 78.7 µM)
- MIC (Salmonella typhimurium): 18.8 µg/mL (≈ 78.7 µM)
- MIC (Enterobacter cloacae): 18.8 µg/mL (≈ 78.7 µM)
- MIC (Proteus vulgaris): 18.8 µg/mL (≈ 78.7 µM)
- MIC (Klebsiella pneumoniae): 18.8 µg/mL (≈ 78.7 µM)

Compound: F[B-]1(F)Nc2ccccc2C2=[N+]1NC(c1cccnc1)C2 (configuration not stated)
- IC50 (Tyrosinase [6]): 350 µM
- MIC [7]: 18.8 µg/mL (≈ 65.5 µM)

Compound: F[B-]1(F)Nc2ccccc2C2=[N+]1NC(c1ccncc1)C2 (configuration not stated)
- IC50 (Tyrosinase [6]): > 699 µM
- MIC [7]: 37.5 µg/mL (≈ 131 µM)

Compound: C=C(C)C(CCC(C)(C)O)Cc1c(O)cc(OC)c2c1O[C@H](c1ccc(O)cc1O)CC2=O (some centres not stated)
- IC50 (Tyrosinase [5]): 0.11 µM

Compound: CC1(C)S[C@@H]2[C@H](NC(=O)[C@H](N)c3ccccc3)C(=O)N2[C@H]1C(=O)O [AMPICILLIN]
- zone of inhibition at 300 µg/mL (Bacillus subtilis [9]): 17.9 mm

Compound: GENTAMICIN
- inhibition zone (IZ) (Enterococcus faecalis): 10.6 mm

Compound: C=C(C)C(CC=C(C)C)Cc1c(O)cc(OC)c2c1O[C@H](c1ccc(O)cc1O)CC2=O (some centres not stated) [KURARINONE]
- zone of inhibition at 10 µg/disc (Bacillus cereus): 14 mm
- zone of inhibition at 10 µg/disc (Bacillus subtilis [2]): 14 mm
- zone of inhibition at 10 µg/disc (Staphylococcus aureus [3]): 14 mm
- IC50 (Tyrosinase [5]): 2.19 µM

Compound: COc1c(N2C[C@@H]3CCCN[C@@H]3C2)c(F)cc2c(=O)c(C(=O)O)cn(C3CC3)c12 [MOXIFLOXACIN]
- IC50 (Tyrosinase [6]): 2.99 µM

Compound: Nc1ccccc1C1=NNC(c2ccncc2)C1 (configuration not stated)
- IC50 (Tyrosinase [6]): 420 µM
- MIC [7]: 37.5 µg/mL (≈ 157 µM)

Compound: C[C@@H]1O[C@@H](OC[C@H]2O[C@@H](Oc3c(-c4ccc(O)cc4)oc4cc(O)cc(O)c4c3=O)[C@H](O)[C@@H](O)[C@@H]2O)[C@H](O)[C@H](O)[C@H]1O [NICOTIFLOROSIDE]
- IC50 (Tyrosinase [1]): 1.53 µM

Compound: Nc1ccccc1C1=NNC(c2cccnc2)C1 (configuration not stated)
- IC50 (Tyrosinase [6]): 420 µM
- MIC [7]: 150 µg/mL (≈ 629 µM)

Compound: C[C@@H]1O[C@@H](OC[C@H]2O[C@@H](Oc3c(-c4ccc(O)c(O)c4)oc4cc(O)cc(O)c4c3=O)[C@H](O)[C@@H](O)[C@@H]2O)[C@H](O)[C@H](O)[C@H]1O [RUTIN]
- IC50 (Tyrosinase [1]): 1.4 µM

Compound: CC(C)=CCC/C(C)=C/Cc1c(O)ccc(C=O)c1O
- IC50 (Tyrosinase [10]): > 729 µM
- MIC (Staphylococcus aureus [11]): < 8 µg/mL
- MIC (Staphylococcus aureus [12]): < 8 µg/mL
- MIC [13]: < 8 µg/mL

Compound: CN[C@@H]1[C@H](O[C@H]2[C@H](O[C@H]3[C@H](O)[C@@H](O)[C@H](N=C(N)N)[C@@H](O)[C@@H]3N=C(N)N)O[C@@H](C)[C@]2(O)C=O)O[C@@H](CO)[C@H](O)[C@H]1O [STREPTOMYCIN]
- inhibition zone (IZ) (Staphylococcus aureus [14]): 20.3 mm

Compound: O=c1cc(-c2ccc(O)c(O)c2)oc2cc(O)cc(O)c12 [LUTEOLIN]
- IC50 (Tyrosinase [1]): 2.14 µM
- MIC (Staphylococcus aureus [15]): 31.2 µg/mL (≈ 109 µM)

Compound: O=c1cc2n(c3ccccc13)[B-](F)(F)[n+]1ccccc1-2
- IC50 (Tyrosinase [6]): > 741 µM
- MIC [7]: ≤ 18.8 µg/mL
- MIC (Bacillus subtilis [8]): ≤ 18.8 µg/mL
- MIC (Salmonella typhimurium): ≤ 18.8 µg/mL
- MIC (Enterobacter cloacae): ≤ 18.8 µg/mL
- MIC (Proteus vulgaris): ≤ 18.8 µg/mL
- MIC (Klebsiella pneumoniae): ≤ 18.8 µg/mL

Compound: CCn1cc(C(=O)O)c(=O)c2cc(F)c(N3CCNCC3)cc21 [NORFLOXACIN]
- IC50 (Tyrosinase [6]): 2.19 µM

Compound: F[B-]1(F)Nc2ccccc2C2=[N+]1NC(c1ccccn1)C2 (configuration not stated)
- IC50 (Tyrosinase [6]): 350 µM
- MIC [7]: 37.5 µg/mL (≈ 131 µM)
- MIC (Bacillus subtilis [8]): 37.5 µg/mL (≈ 131 µM)
- MIC (Salmonella typhimurium): 37.5 µg/mL (≈ 131 µM)
- MIC (Enterobacter cloacae): 37.5 µg/mL (≈ 131 µM)
- MIC (Proteus vulgaris): 37.5 µg/mL (≈ 131 µM)
- MIC (Klebsiella pneumoniae): 37.5 µg/mL (≈ 131 µM)
